This note sets out measurements from patent US8501771B2, “Aminoalcohol-substituted aryldihydroisoquinolinones, process for their preparation and their use as medicaments” (Sanofi, priority 2006, dated 2013).

Usually IC50 stands for the concentration at which inhibition is half-maximal.

The structures appear in SMILES notation.

This assay addresses T1, human MCH receptor (Homo sapiens, UniProt Q99705).
T1 construct: expressed in transfected cells
Put plainly: Functional IC50 of MCH1R antagonists: cellular calcium flux (FLIPR) after addition of agonist MCH. It is filed as cell-based. The following applies: recombinant HEK293 cell line expressing the human MCH receptor. The source says:
Influence on the MCH receptor in vitro; determination of functional IC50 values of MCH1R antagonists
Cloning of the cDNA for the human MCH receptor, preparation of a recombinant HEK293 cell line which expresses the human MCH receptor, and functional measurements with the recombinant cell line took place in analogy to the description by Audinot et al. (J. Biol. Chem. 276, 13554-13562, 2001). A difference from the reference was, however, the use of the plasmid pEAK8 from EDGE Biosystems (USA) for the construction of the expression vector. The host used for the transfection was a transformed HEK cell line named “PEAK Stable Cells” (likewise from EDGE Biosystems). Functional measurements of the cellular calcium flux after addition of agonist (MCH) in the presence of ligand of the invention took place with the aid of the FLIPR apparatus from Molecular Devices (USA), using protocols of the apparatus manufacturer. The compounds of the invention show a significant inhibition (>30%) of the signal induced by the agonist at a concentration of 100 μM, preferably at 10 μM, particularly preferably at 1 μM, very particularly preferably at 100 nM and even more particularly preferably at 10 nM.
Table 8 summarizes the results which were obtained by the above described calcium […] assay.

T1 sequence (Q99705 whole entry): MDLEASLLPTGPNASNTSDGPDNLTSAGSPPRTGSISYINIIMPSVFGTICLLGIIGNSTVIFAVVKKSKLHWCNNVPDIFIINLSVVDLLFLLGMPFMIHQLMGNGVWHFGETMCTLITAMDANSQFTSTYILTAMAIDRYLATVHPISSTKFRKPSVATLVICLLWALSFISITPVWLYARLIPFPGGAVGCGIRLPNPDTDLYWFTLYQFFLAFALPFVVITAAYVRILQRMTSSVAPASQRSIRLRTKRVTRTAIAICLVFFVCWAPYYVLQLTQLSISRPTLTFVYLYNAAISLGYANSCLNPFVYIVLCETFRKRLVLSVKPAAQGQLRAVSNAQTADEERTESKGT

As for `CCCCOc1ccc2c(c1)CCN(c1ccc(O[C@H]3C[C@H]4CC[C@@H](C3)N4C)c(Cl)c1)C2=O` [Example 1, 6-Butoxy-2-[3-chloro-4-((1R,3R,5S)-8-methyl-8-azabicyclo[3.2.1]oct-3-yloxy)-phenyl]-3,4-dihydro-2H-isoquinolin-1-one], the IC50 was 930 nM.
The figure for `CCCCOc1ccc2c(c1)CCN(c1ccc(OCCN3CCCC3)c(OC)c1)C2=O` [Example 6] is 270 nM.
The figure for `CCCCOc1ccc2c(c1)CCN(c1ccc(OC[C@@H]3CCCN4CCCC[C@H]34)cc1)C2=O` [Example 9] is 870 nM; for `COCCOc1ccc2c(c1)CCN(c1ccc(OCCN3CCCC3)c(OC)c1)C2=O` [Example 15] it is 5440 nM; for `CN1[C@@H]2CC[C@H]1C[C@@H](Oc1ccc(N3CCc4cc(OCC5CCC5)ccc4C3=O)cc1Cl)C2` [Example 17] it is 1140 nM.
The figure for `CN1[C@@H]2CC[C@H]1C[C@@H](Oc1ccc(N3CCc4cc(OC5CSC5)ccc4C3=O)cc1Cl)C2` [Example 26, 2-[3-Chloro-4-((1R,3R,5S)-8-methyl-8-azabicyclo[3.2.1]oct-3-yloxy)phenyl]-6-(thietan-3-yloxy)-3,4-dihydro-2H-isoquinolin-1-one] is 14800 nM.
With `CN1[C@@H]2CC[C@H]1C[C@@H](Oc1ccc(N3CCc4cc(C#CC5(O)CCCC5)ccc4C3=O)cc1Cl)C2` [Example 34], the IC50 was determined as 1150 nM.
The figure for `CCC(O)C#Cc1ccc2c(c1)CCN(c1ccc(O[C@H]3C[C@H]4CC[C@@H](C3)N4C)c(Cl)c1)C2=O` (stereo partly drawn) [Example 42] is 780 nM; for `CN1[C@@H]2CC[C@H]1C[C@@H](Oc1ccc(N3CCc4cc(C#CC(C)(C)O)ccc4C3=O)cc1Cl)C2` [Example 45] it is 1110 nM; for `Cc1ccc(-c2cc3c(s2)C(=O)N(c2ccc(OCCN(C)C)cc2)CC3)cc1` [Example 55, 6-[4-(2-Dimethylaminoethoxy)phenyl]-2-p-tolyl-5,6-dihydro-4H-thieno[2,3-c]pyridin-7-one] it is 4900 nM.
The figure for `CN1[C@@H]2CC[C@H]1C[C@@H](Oc1ccc(-n3ccc4cc(OC[C@@H]5CCCO5)ccc4c3=O)cc1)C2` [Example 56, 2-[4-((1R,3R,5S)-8-Methyl-8-azabicyclo[3.2.1]oct-3-yloxy)phenyl]-6-[(S)-1-(tetrahydrofuran-2-yl)methoxy]-2H-isoquinolin-1-one] is 160 nM; for `COc1cc(-n2ccc3cc(OC[C@@H]4CCCO4)ccc3c2=O)ccc1OCCN1CCCC1` [Example 65] it is 130 nM.
On to `COc1cc(-n2ccc3cc(OC[C@H]4CCCO4)ccc3c2=O)ccc1OC1CN2CCC1CC2` (stereo partly drawn) [Example 69], for which the IC50 turned out to be 1180 nM.
The figure for `Cc1cc(-n2ccc3cc(OC[C@H]4CCCO4)ccc3c2=O)ccc1O[C@H]1C[C@H]2CC[C@@H](C1)N2CC(C)(C)O` [Example 72] is 490 nM.
Then `COCCN1[C@@H]2CC[C@H]1C[C@@H](Oc1ccc(-n3ccc4cc(OC[C@H]5CCCO5)ccc4c3=O)cc1C)C2` [Example 74], with 140 nM; and `O=c1c2ccc(OC[C@H]3CCCO3)cc2ccn1-c1ccc(O[C@H]2C[C@H]3CC[C@@H](C2)N3C2CC2)c(F)c1` [Example 75], with 5010 nM.
Take `Cc1cc(-n2ccc3cc(OC[C@H]4CCCO4)ccc3c2=O)ccc1O[C@H]1C[C@H]2CC[C@@H](C1)N2Cc1ncc[nH]1` [Example 81]: the IC50 was found to be 460 nM.
Then `COc1cc(-n2ccc3cc(OC[C@@H]4CCCO4)ccc3c2=O)ccc1OCCN1CC2CCC2C1` (stereo partly drawn) [Example 83, 2-{4-[2-(3-Azabicyclo[3.2.0]hept-3-yl)ethoxy]-3-methoxyphenyl}-6-[(S)-1-(tetrahydrofuran-2-yl)methoxy]-2H-isoquinolin-1-one], with 840 nM; and `COc1cc(-n2ccc3cc(OC[C@@H]4CCCO4)ccc3c2=O)ccc1OCCN1CC2CCCCC2C1` (stereo partly drawn) [Example 84], with 250 nM.
The figure for `COc1cc(-n2ccc3cc(OC[C@@H]4CCCO4)ccc3c2=O)ccc1OCCN1C2CCC1CC2` [Example 86] is 210 nM; for `CCCCOc1ccc2c(c1)CCN(c1ccc(O[C@H]3C[C@H]4CC[C@@H](C3)N4CCCF)cc1)C2=O` [Example 89, 6-Butoxy-2-{4-[(1R,3R,5S)-8-(3-fluoropropyl)-8-azabicyclo[3.2.1]oct-3-yloxy]phenyl}-3,4-dihydro-2H-isoquinolin-1-one] it is 4390 nM.
